Data taken from patent US20250179114A1, “Anti-Inflammatory Compound and Use Thereof” (DUALITY BIOLOGICS (SUZHOU) CO., LTD., priority 2021, published 2025).

Legend:
glucocorticoid receptor = molecular target: T1, glucocorticoid receptor (Homo sapiens, UniProt P04150); test: Activity assay of glucocorticoid receptor reporter gene GRE; format: cell-based; conditions: HEK293 cells transfected with pGL5 and pBIND-GR; 24 h; Dual-Glo luciferase
T1 construct: host or cells: HEK293
T1 sequence (P04150 1-777): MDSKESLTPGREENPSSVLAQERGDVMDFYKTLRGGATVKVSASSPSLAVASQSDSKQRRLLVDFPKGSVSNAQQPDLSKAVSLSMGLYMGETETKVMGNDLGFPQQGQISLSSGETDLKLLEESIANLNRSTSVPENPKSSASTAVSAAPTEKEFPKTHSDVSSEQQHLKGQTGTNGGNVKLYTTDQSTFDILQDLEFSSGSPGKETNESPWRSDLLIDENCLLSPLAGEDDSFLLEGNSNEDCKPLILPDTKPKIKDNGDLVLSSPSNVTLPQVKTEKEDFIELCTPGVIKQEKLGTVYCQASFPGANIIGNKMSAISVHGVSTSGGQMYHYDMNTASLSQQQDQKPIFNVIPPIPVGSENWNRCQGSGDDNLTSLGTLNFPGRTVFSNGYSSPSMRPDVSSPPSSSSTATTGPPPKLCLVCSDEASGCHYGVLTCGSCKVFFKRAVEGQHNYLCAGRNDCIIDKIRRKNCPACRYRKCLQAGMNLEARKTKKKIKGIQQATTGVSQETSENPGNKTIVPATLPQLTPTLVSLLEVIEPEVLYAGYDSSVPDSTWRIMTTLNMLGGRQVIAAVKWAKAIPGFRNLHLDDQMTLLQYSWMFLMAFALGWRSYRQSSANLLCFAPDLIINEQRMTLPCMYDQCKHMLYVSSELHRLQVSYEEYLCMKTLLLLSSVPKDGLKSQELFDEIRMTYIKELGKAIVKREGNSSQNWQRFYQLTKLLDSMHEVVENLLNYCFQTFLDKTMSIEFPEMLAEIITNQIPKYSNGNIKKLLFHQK
Procedure: (§1) HEK293 cells were cultured in DMEM+10% FBS medium in a carbon dioxide incubator humidified at 37° C. with 5% carbon dioxide.
HEK293 cells were digested with trypsin, and the HEK293 cell resuspension was adjusted to 200,000 cell/mL in medium (96 well plate: 100 μL/well).
Transfection reagent mixtures were prepared according to Tables 5a and 5b below, mixed well and left to stand at room temperature for 20 min.
The prepared transfection mixtures were added to 10 mL of the cell density-adjusted resuspension, mixed well by turning the mixtures upside down, and seeded into a 96-well plate at a volume of 100 μL/well.
The 96-well plate was incubated in a humidified incubator at 37° C. with 5% carbon dioxide for 24 h.
The test plate was placed back into the incubator and incubated for 24 h.
(§2) The test plate was detected using the Dual-Glo Luciferase Assay System kit from Promega, and the fluorescence signal of Firefly Luciferase and the fluorescence signal of Renilla Luciferase were read using Enspire, respectively.
The final measurement value was a normalized value “F/R” obtained by dividing the Firefly Luciferase fluorescent signal by the Renilla Luciferase fluorescent signal.
The data were copied and pasted into Excel, and the activation rate was obtained through an equation.
The data were imported into MS Excel and subjected to curve fitting by using XLFit excel add-in version 5.4.0.8 to obtain an EC50 value.
(§3) Y is the agonism and X is the concentration of the compound.

GR = molecular target: T2, GR (Homo sapiens, UniProt P04150); test: GR luciferase reporter gene elution experiment; format: cell-based; conditions: supernatant removed and washed, then 24 h; for Elution time (Act %) 15 min: incubation 15 min; for Elution time (Act %) 30 min: incubation 30 min; for Elution time (Act %) 1 h: incubation 1 h; for Elution time (Act %) 2 h: incubation 2 h; for Elution time (Act %) 4 h: incubation 4 h
T2 construct: host or cells: HEK293
T2 sequence (P04150 1-777): T1 sequence (P04150 1-777)
Procedure: The compounds of the present application were evaluated for their ability to continue activation upon binding to GR.
as §1
• 1) HEK293 cells were digested with trypsin, and the HEK293 cell resuspension was adjusted to 200,000 cell/mL in medium (96 well plate: 100 μL/well). • 2) Transfection reagent mixtures were prepared according to the table below, mixed well and left to stand at room temperature for 20 min.
• 3) The prepared transfection mixtures were added to 10 mL of the cell density-adjusted resuspension, mixed well by turning the mixtures upside down, and seeded into a 96-well plate at a volume of 100 μL/well. • 4) The 96-well plate was incubated in a humidified incubator at 37° C. with 5% carbon dioxide for 24 h.
as §2
5. Data Processing • 1) The final measurement value was a normalized value “F/R” obtained by dividing the Firefly Luciferase fluorescent signal by the Renilla Luciferase fluorescent signal. • 2) The data were copied and pasted into Excel, and the activation rate was obtained through an equation.
[formula] • 3) The data were imported into MS Excel and subjected to curve fitting by using XLFit excel add-in version 5.4.0.8 to obtain an EC50 value.
as §3

DBA/1J mice = test: Bovine type II collagen mixed adjuvant-induced DBA/1 mouse arthritis (CIA) model; format: in vivo; conditions: Table 10-2; 0.2 mg/kg p.o.; mean
Procedure: Example 6: Assay of Biological Activity of Bovine Type II Collagen Mixed Adjuvant-Induced DBA/1 Mouse Arthritis Model
The potency of the ligand-drug conjugates (ADCs) of the present application was evaluated in a bovine collagen-induced arthritis (CIA) model.
Male DBA/1J mice were obtained from Jackson Labs. The mice were used at 6-8 weeks of age. All animals were given ad libitum access to food and water under a 12-hour light/dark cycle at constant temperature and humidity.
Bovine collagen (Chondrex, Inc. Cat: 20021) was dissolved in 0.1 M acetic acid and stored overnight in a 2-8 C refrigerator at a collagen concentration of 8 mg/mL, and an equal volume of CFA (complete Freund's adjuvant, Difco, Laurence, KS) was added into the collagen solution and emulsified in a high speed homogenizer to make an emulsion. On Day 0, animals in need of immunization were anesthetized with 2%-5% isoflurane and male DBA/J mice were immunized once with a single subcutaneous injection of 50 μL collagen/CFA emulsion at the tail root of 2-3 cm from the body. Three weeks later, namely on Day 21, the tail root was immunized twice with the same volume of collagen emulsion by the same injection method. After the second immunization, 120 animals with an average score of about 2 for the limb arthritis were selected and randomly grouped. The animals were treated by a single intraperitoneal injection of test reagent according to the experimental design after grouping. For the dexamethasone (Sphsine) treatment group, the drug was administered the day after grouping until the end of the trial. The extremities of each group were observed twice weekly for the onset of arthritis from the time of the second immunization, and the observation was continued until the end of the trial.
Scoring according to the degree of lesion (redness and swelling) was performed on a scale of 0-4 points, with a maximum score of 4 for each limb and a total maximum score of 16 for each animal's limbs. The scoring criteria are as follows: 0 points, no redness and swelling; 1 point, 1-2 red and swollen interphalangeal joints; 2 points, 3-4 red and swollen interphalangeal joints; 3 points, more than 4 red and swollen interphalangeal joints; 4 points, severe redness and swelling in toes or fingers to ankle joints or wrist joints. For joint swelling, ankle thickness of hind paw of each animal was measured with a screw micrometer before one immunization. Since the second immunization, measurements were performed 2 times per week, and changes in ankle thickness before and after the immunization were compared. After the trial was completed, all animals were anesthetized with 2-5% isoflurane and then euthanized by exsanguination.
Score AUC: area under the curve for arthritis score. The results are shown in Tables 10-1 and 10-2 and FIGS. 3a-3c.

SMILES: C[C@]12C=CC(=O)C=C1CC[C@H]1[C@@H]3C[C@H]4O[C@@H](c5ccn(Cc6cccc(N)c6)c5)O[C@@]4(C(=O)CO)[C@@]3(C)C[C@H](O)[C@@]12F [Compound 7]
- EC50 (glucocorticoid receptor): 0.13 nM

SMILES: C[C@]12C=CC(=O)C=C1CC[C@H]1[C@@H]3C[C@H]4O[C@@H](c5ccn(Cc6ccc(N)cc6)c5)O[C@@]4(C(=O)CO)[C@@]3(C)C[C@H](O)[C@@]12F [Compound 8]
- EC50 (glucocorticoid receptor): 0.07 nM

SMILES: C[C@]12C=CC(=O)C=C1CC[C@@H]1[C@@H]2[C@@H](O)C[C@@]2(C)[C@H]1C[C@H]1O[C@@H](c3ccc(Cc4cccc(N)c4)s3)O[C@]12C(=O)CO [Compound 11]
- EC50 (glucocorticoid receptor): 0.37 nM

SMILES: C[C@]12C=CC(=O)C=C1CC[C@@H]1[C@@H]2[C@@H](O)C[C@@]2(C)[C@H]1C[C@H]1O[C@@H](c3ccc(Cc4ccc(N)cc4)s3)O[C@]12C(=O)CO [Compound 15]
- EC50 (glucocorticoid receptor): 0.63 nM

SMILES: C[C@]12C=CC(=O)C=C1CC[C@H]1[C@@H]3C[C@H]4O[C@@H](c5ccc(Cc6ccc(N)cc6)s5)O[C@@]4(C(=O)CO)[C@@]3(C)C[C@H](O)[C@@]12F [Compound 17]
- EC50 (glucocorticoid receptor): 0.33 nM
- Elution time (Act %) 15 min (GR): 1.7%
- Elution time (Act %) 30 min (GR): 0.7%
- Elution time (Act %) 1 h (GR): 1.3%
- Elution time (Act %) 2 h (GR): 2.9%
- Elution time (Act %) 4 h (GR): 9.7%

SMILES: C[C@]12C=CC(=O)C=C1CC[C@@H]1[C@@H]2[C@@H](O)C[C@@]2(C)[C@H]1C[C@H]1O[C@@H](c3cc(Cc4cccc(N)c4)cs3)O[C@]12C(=O)CO [Compound 18]
- EC50 (glucocorticoid receptor): 0.28 nM

SMILES: CC12C=CC(=O)C=C1CCC1C2C(O)CC2(C)C1CC1OC(c3ccc(Oc4cccc(N)c4)cn3)OC12C(=O)CO [Compound 19, (6aR,6bS,7S,8aS,8bS,10R,11aR,12aS,12bS)-10-(5-(3-aminophenoxy)pyridin-2-yl)-7-hydroxy-8b-(2-hydroxyacetyl)-6a,8a-dimethyl-1,2,6a,6b,7,8,8a,8b,11a,12,12a,12b-dodecahydro-4H-naphtho[2′,1′:4,5]indeno[1,2-d][1,3]dioxol-4-one]
- EC50 (glucocorticoid receptor): > 1000 nM

SMILES: C[C@]12C=CC(=O)C=C1CC[C@@H]1[C@@H]2[C@@H](O)C[C@@]2(C)[C@H]1C[C@H]1O[C@@H](c3coc(Cc4cccc(N)c4)c3)O[C@]12C(=O)CO [Compound 20]
- EC50 (glucocorticoid receptor): > 1000 nM

SMILES: C[C@]12C=CC(=O)C=C1CC[C@@H]1[C@@H]2[C@@H](O)C[C@@]2(C)[C@H]1C[C@H]1O[C@@H](c3cnc(Cc4cccc(N)c4)s3)O[C@]12C(=O)CO [Compound 28, reference compound]
- EC50 (glucocorticoid receptor): 10 nM

SMILES: C[C@]12C=CC(=O)C=C1CC[C@@H]1[C@@H]2[C@@H](O)C[C@@]2(C)[C@H]1C[C@H]1O[C@H](c3cnc(Cc4cccc(N)c4)s3)O[C@]12C(=O)CO [Compound 28S]
- EC50 (glucocorticoid receptor): > 1000 nM

SMILES: C[C@@H]1C[C@H]2[C@@H]3CCC4=CC(=O)C=C[C@]4(C)[C@@]3(F)[C@@H](O)C[C@]2(C)[C@@]1(O)C(=O)CO [Dexamethasone, dexamethasone]
- Arthritis score AUC (area under the curve for arthritis score) (DBA/1J mice): 24.50
- Arthritis score D 0 (DBA/1J mice): 0.00
- Arthritis score D 21 (DBA/1J mice): 0.00
- Arthritis score D 24 (DBA/1J mice): 0.00
- Arthritis score D 28 (DBA/1J mice): 0.00
- Arthritis score D 31 (DBA/1J mice): 2.10
- Arthritis score D 35 (DBA/1J mice): 2.90
- Arthritis score Day 38 (DBA/1J mice): 1.30
- Arthritis score Day 42 (DBA/1J mice): 0.50
- Arthritis score Day 45 (DBA/1J mice): 0.20
- Arthritis score Day 49 (DBA/1J mice): 0.00
- Arthritis score Day 52 (DBA/1J mice): 0.00
- Arthritis score Day 56 (DBA/1J mice): 0.00
- Elution time (Act %) 15 min (GR): 9.4%
- Elution time (Act %) 30 min (GR): 10.0%
- Elution time (Act %) 1 h (GR): 7.2%
- Elution time (Act %) 2 h (GR): 6.2%
- Elution time (Act %) 4 h (GR): 31.9%
